Measured values from PubChem BioAssay AID1963983 (Molecular Pharmacology Branch, DTP, NCI, 2024).
Several values for one entry are separate records, joined by “and”; a condition that tells them apart may be missing. Equal values may be shown once.

Test system: 186277-243-T-J2-PDC multi-cell spheroid viability
Assay: Anticancer human tumor 186277-243-T-J2-PDC patient-derived colon adenocarcinoma cell line growth inhibition [PI3K]
Conditions: for viability, T/C: stronger effect = lower value
Outline: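 High-throughput combination screen: PI3K inhibitors crossed with targeted small molecules on complex spheroids of tumor cells, HUVEC and MSCs at 37 degrees C, 5% CO2. Top concentration was at or near clinical Cmax (otherwise 10 microM), with half-log decrements.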

[1] = curve of first compound, second compound 0.0316 µM
[2] = curve of first compound, second compound 0.1 µM
[3] = curve of first compound, second compound 0.316 µM
[4] = curve of first compound, second compound 1 µM
[5] = second compound 0.0316 µM, first compound 0.0316 µM
[6] = second compound 0.0316 µM, first compound 0.1 µM
[7] = second compound 0.0316 µM, first compound 0.316 µM
[8] = second compound 0.0316 µM, first compound 1 µM
[9] = second compound 0.0316 µM, first compound 3.16 µM
[10] = second compound 0.0316 µM, first compound 10 µM
[11] = second compound 0.1 µM, first compound 0.0316 µM
[12] = second compound 0.1 µM, first compound 0.1 µM
[13] = second compound 0.1 µM, first compound 0.316 µM
[14] = second compound 0.1 µM, first compound 1 µM
[15] = second compound 0.1 µM, first compound 3.16 µM
[16] = second compound 0.1 µM, first compound 10 µM
[17] = second compound 0.316 µM, first compound 0.0316 µM
[18] = second compound 0.316 µM, first compound 0.1 µM
[19] = second compound 0.316 µM, first compound 0.316 µM
[20] = second compound 0.316 µM, first compound 1 µM
[21] = second compound 0.316 µM, first compound 3.16 µM
[22] = second compound 0.316 µM, first compound 10 µM
[23] = second compound 1 µM, first compound 0.0316 µM
[24] = second compound 1 µM, first compound 0.1 µM
[25] = second compound 1 µM, first compound 0.316 µM
[26] = second compound 1 µM, first compound 1 µM
[27] = second compound 1 µM, first compound 3.16 µM
[28] = second compound 1 µM, first compound 10 µM
[29] = curve of first compound, second compound 0.00316 µM
[30] = curve of first compound, second compound 0.01 µM
[31] = second compound 0.00316 µM, first compound 0.0316 µM
[32] = second compound 0.00316 µM, first compound 0.1 µM
[33] = second compound 0.00316 µM, first compound 0.316 µM
[34] = second compound 0.00316 µM, first compound 1 µM
[35] = second compound 0.00316 µM, first compound 3.16 µM
[36] = second compound 0.00316 µM, first compound 10 µM
[37] = second compound 0.01 µM, first compound 0.0316 µM
[38] = second compound 0.01 µM, first compound 0.1 µM
[39] = second compound 0.01 µM, first compound 0.316 µM
[40] = second compound 0.01 µM, first compound 1 µM
[41] = second compound 0.01 µM, first compound 3.16 µM
[42] = second compound 0.01 µM, first compound 10 µM
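Note: spheroids exposed to compounds for seven days before viability reading.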
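Throughout, for viability, T/C: 100% = DMSO vehicle control viability.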

Question: Which results are given for `C=CC(=O)N1CCN(c2nc(=O)n(-c3c(C)ccnc3C(C)C)c3nc(-c4c(O)cccc4F)c(F)cc23)C(C)C1` (stereo not given) + Cc1nc(NC(=O)N2CCCC2C(N)=O)sc1-c1ccnc(C(C)(C)C(F)(F)F)c1?
Answer: IC50 [1]: > 10 µM; IC50 [2]: > 10 µM; IC50 [3]: > 10 µM; IC50 [4]: > 10 µM; IC50 (curve of first compound, second compound 3.16 µM): 0.605 µM; IC50 (curve of first compound, second compound 10 µM): < 0.0316 µM; viability, T/C [5]: 83.7%; viability, T/C [6]: 108%; viability, T/C [7]: 105%; viability, T/C [8]: 88.1%; viability, T/C [9]: 100%; viability, T/C [10]: 94.8%; viability, T/C [11]: 102%; viability, T/C [12]: 99.2%; viability, T/C [13]: 106%; viability, T/C [14]: 95.6%; viability, T/C [15]: 92%; viability, T/C [16]: 103%; viability, T/C [17]: 108%; viability, T/C [18]: 107%; viability, T/C [19]: 96.6%; viability, T/C [20]: 104%; viability, T/C [21]: 86.9%; viability, T/C [22]: 85%; viability, T/C [23]: 93.4%; viability, T/C [24]: 102%; viability, T/C [25]: 87.6%; viability, T/C [26]: 94.5%; viability, T/C [27]: 80%; viability, T/C [28]: 57.5%; viability, T/C (second compound 3.16 µM, first compound 0.0316 µM): 61.6%; viability, T/C (second compound 3.16 µM, first compound 0.1 µM): 51.9%; viability, T/C (second compound 3.16 µM, first compound 0.316 µM): 46.5%; viability, T/C (second compound 3.16 µM, first compound 1 µM): 52.7%; viability, T/C (second compound 3.16 µM, first compound 3.16 µM): 41.1%; viability, T/C (second compound 3.16 µM, first compound 10 µM): 26.3%; viability, T/C (second compound 10 µM, first compound 0.0316 µM): 11.1%; viability, T/C (second compound 10 µM, first compound 0.1 µM): 12.8%; viability, T/C (second compound 10 µM, first compound 0.316 µM): 14.5%; viability, T/C (second compound 10 µM, first compound 1 µM): 9.26%; viability, T/C (second compound 10 µM, first compound 3.16 µM): 10.8%; viability, T/C (second compound 10 µM, first compound 10 µM): 13.2%

Question: How did the viability, T/C (compound 0.0316 µM) turn out when `Cn1nccc1Nc1nccc(-c2ccn(C(CO)c3ccc(Cl)c(F)c3)c(=O)c2)n1` (stereo not given) was run?
Answer: Its viability, T/C is 96.2% [middle of 4 runs].

Question: What about the viability, T/C (compound 0.1 µM) of the same compound?
Answer: Its viability, T/C is 102% and 103% (2×) and 105%.

Question: What about the viability, T/C (compound 0.316 µM) of the same compound?
Answer: Its viability, T/C is 99.2% [middle of 4 runs].

Question: And the viability, T/C (compound 1 µM)?
Answer: Its viability, T/C is 81% [middle of 4 runs].

Question: What about the viability, T/C (compound 3.16 µM) of the same compound?
Answer: Its viability, T/C is 37.2% [middle of 4 runs].

Question: And the viability, T/C (compound 10 µM)?
Answer: The viability, T/C was 26.7% [middle of 4 runs].

Question: And the IC50 (curve of compound)?
Answer: Its IC50 is 2.35 µM [middle of 4 runs].

Question: How did the viability, T/C (compound 0.0316 µM) turn out when `C=CC(=O)N1CCN(c2nc(=O)n(-c3c(C)ccnc3C(C)C)c3nc(-c4c(O)cccc4F)c(F)cc23)C(C)C1` (stereo not given) was run?
Answer: The viability, T/C was 98.1% [middle of 4 runs].

Question: What about the viability, T/C (compound 0.1 µM) of the same compound?
Answer: Its viability, T/C is 92.8% [middle of 4 runs].

Question: And the viability, T/C (compound 0.316 µM)?
Answer: Its viability, T/C is 98% [middle of 4 runs].

Question: What about the viability, T/C (compound 1 µM) of the same compound?
Answer: The viability, T/C was 102% [middle of 4 runs].

Question: And the viability, T/C (compound 3.16 µM)?
Answer: Its viability, T/C is 108% [middle of 4 runs].

Question: What about the viability, T/C (compound 10 µM) of the same compound?
Answer: The viability, T/C was 90.6% [middle of 4 runs].

Question: And the IC50 (curve of compound)?
Answer: Its IC50 is > 10 µM.

Question: Which results are given for `CC1(C)CCC(CN2CCN(c3ccc(C(=O)NS(=O)(=O)c4ccc(NCC5CCOCC5)c([N+](=O)[O-])c4)c(Oc4cnc5[nH]ccc5c4)c3)CC2)=C(c2ccc(Cl)cc2)C1` + COc1c(OCCCN2CCOCC2)ccc2c3n(c(=NC(=O)c4cnc(N)nc4)nc12)CCN3?
Answer: IC50 [29]: > 10 µM; IC50 [30]: > 10 µM; IC50 [1]: > 10 µM; IC50 [2]: < 0.0316 µM; IC50 [3]: < 0.0316 µM; IC50 [4]: < 0.0316 µM; viability, T/C [31]: 110%; viability, T/C [32]: 96.2%; viability, T/C [33]: 110%; viability, T/C [34]: 108%; viability, T/C [35]: 93%; viability, T/C [36]: 115%; viability, T/C [37]: 99.1%; viability, T/C [38]: 105%; viability, T/C [39]: 96.5%; viability, T/C [40]: 109%; viability, T/C [41]: 82.6%; viability, T/C [42]: 94%; viability, T/C [5]: 80.8%; viability, T/C [6]: 89.3%; viability, T/C [7]: 80.5%; viability, T/C [8]: 78.5%; viability, T/C [9]: 76.1%; viability, T/C [10]: 71.2%; viability, T/C [11]: 26.6%; viability, T/C [12]: 20.3%; viability, T/C [13]: 21.3%; viability, T/C [14]: 21.3%; viability, T/C [15]: 23.9%; viability, T/C [16]: 16.9%; viability, T/C [17]: 5.48%; viability, T/C [18]: 11.5%; viability, T/C [19]: 4.51%; viability, T/C [20]: 6.03%; viability, T/C [21]: 6.17%; viability, T/C [22]: 4.39%; viability, T/C [23]: 2.94%; viability, T/C [24]: 4.42%; viability, T/C [25]: 3.06%; viability, T/C [26]: 2.7%; viability, T/C [27]: 5.01%; viability, T/C [28]: 2.15%

Question: Which results are given for `CCCS(=O)(=O)Nc1ccc(F)c(C(=O)c2c[nH]c3ncc(-c4ccc(Cl)cc4)cc23)c1F` + COc1c(OCCCN2CCOCC2)ccc2c3n(c(=NC(=O)c4cnc(N)nc4)nc12)CCN3?
Answer: IC50 [29]: 4.9 µM; IC50 [30]: 5.6 µM; IC50 [1]: 5.16 µM; IC50 [2]: < 0.0316 µM; IC50 [3]: < 0.0316 µM; IC50 [4]: < 0.0316 µM; viability, T/C [31]: 114%; viability, T/C [32]: 99.1%; viability, T/C [33]: 84.9%; viability, T/C [34]: 83.5%; viability, T/C [35]: 79.4%; viability, T/C [36]: 14.2%; viability, T/C [37]: 105%; viability, T/C [38]: 90.1%; viability, T/C [39]: 110%; viability, T/C [40]: 90.3%; viability, T/C [41]: 87%; viability, T/C [42]: 13.8%; viability, T/C [5]: 81.1%; viability, T/C [6]: 68.5%; viability, T/C [7]: 96.3%; viability, T/C [8]: 88.2%; viability, T/C [9]: 77.9%; viability, T/C [10]: 12.2%; viability, T/C [11]: 23.1%; viability, T/C [12]: 27.3%; viability, T/C [13]: 29.4%; viability, T/C [14]: 46.7%; viability, T/C [15]: 46%; viability, T/C [16]: 7.08%; viability, T/C [17]: 7.65%; viability, T/C [18]: 8.23%; viability, T/C [19]: 7.39%; viability, T/C [20]: 8.35%; viability, T/C [21]: 12.3%; viability, T/C [22]: 2.99%; viability, T/C [23]: 3.27%; viability, T/C [24]: 3.82%; viability, T/C [25]: 3.96%; viability, T/C [26]: 4.58%; viability, T/C [27]: 7.64%; viability, T/C [28]: 2.38%
